From PMC9229919, “4-Aminoquinoline-Based Adamantanes as Potential Anticholinesterase Agents in Symptomatic Treatment of Alzheimer’s Disease” (Pharmaceutics, 2022)
Where two headings read alike, the source gives them in different places.

Key:
[1] = Ferric reducing antioxidant power (FRAP) assay; conditions: for FRAP: mean ± standard error of three experiments; for antioxidant power lower than that of Trolox: on average;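 as to FRAP: expressed as µM Fe2+ equivalents from an FeSO4·7H2O standard curve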
How it was run: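 Ferric-TPTZ reduction measured by absorbance at 593 nm after 60 min at 37 °C in pH 3.6 acetate-buffered TPTZ/FeCl3 reagent, with test compounds at 10 and 100 µM. FRAP values calculated from an Fe2SO4·7H2O standard curve. Data from three independent experiments.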

[2] = Reverse-phase thin-layer chromatographic lipophilicity (RF, RM0); format: physicochemical; conditions: for RM0: intercept of RM = RM0 + bC; for b: slope of RM = RM0 + bC; for RF, Methanol/Water/Hydrochloric acid (conc.), mobile phase I / RF, Dioxane/Water/Hydrochloric acid (conc.), mobile phase II / RF, Methanol/Water/Hydrochloric acid (conc.), mobile phase II / RF, Acetone/Water/Hydrochloric acid (conc.), mobile phase III / RF, Dioxane/Water/Hydrochloric acid (conc.), mobile phase III / RF, Methanol/Water/Hydrochloric acid (conc.), mobile phase III / RF, Dioxane/Water/Hydrochloric acid (conc.), mobile phase IV / RF, Acetone/Water/Hydrochloric acid (conc.), mobile phase IV / RF, Methanol/Water/Hydrochloric acid (conc.), mobile phase IV / RF, Acetone/Water/Hydrochloric acid (conc.), mobile phase IX / RF, Methanol/Water/Hydrochloric acid (conc.), mobile phase IX / RF, Dioxane/Water/Hydrochloric acid (conc.), mobile phase V / RF, Acetone/Water/Hydrochloric acid (conc.), mobile phase V / RF, Methanol/Water/Hydrochloric acid (conc.), mobile phase V / RF, Dioxane/Water/Hydrochloric acid (conc.), mobile phase VI / RF, Acetone/Water/Hydrochloric acid (conc.), mobile phase VI / RF, Methanol/Water/Hydrochloric acid (conc.), mobile phase VI / RF, Acetone/Water/Hydrochloric acid (conc.), mobile phase VII / RF, Methanol/Water/Hydrochloric acid (conc.), mobile phase VII / RF, Acetone/Water/Hydrochloric acid (conc.), mobile phase VIII / RF, Methanol/Water/Hydrochloric acid (conc.), mobile phase VIII: RP-18 silica; for RF, Methanol/Water/Hydrochloric acid (conc.), mobile phase I: I = 90%MeOH/5%H2O/5%HCl; for RF, Dioxane/Water/Hydrochloric acid (conc.), mobile phase II: II = 80%Dioxane/15%H2O/5%HCl; for RF, Methanol/Water/Hydrochloric acid (conc.), mobile phase II: II = 85%MeOH/10%H2O/5%HCl; for RF, Acetone/Water/Hydrochloric acid (conc.), mobile phase III: III = 70%AC/25%H2O/5%HCl; for RF, Dioxane/Water/Hydrochloric acid (conc.), mobile phase III: III = 70%Dioxane/25%H2O/5%HCl; for RF, Methanol/Water/Hydrochloric acid (conc.), mobile phase III: III = 80%MeOH/15%H2O/5%HCl; for RF, Dioxane/Water/Hydrochloric acid (conc.), mobile phase IV: IV = 60%Dioxane/35%H2O/5%HCl; for RF, Acetone/Water/Hydrochloric acid (conc.), mobile phase IV: IV = 65%AC/30%H2O/5%HCl; for RF, Methanol/Water/Hydrochloric acid (conc.), mobile phase IV: IV = 75%MeOH/20%H2O/5%HCl; for RF, Acetone/Water/Hydrochloric acid (conc.), mobile phase IX: IX = 40%AC/55%H2O/5%HCl; for RF, Methanol/Water/Hydrochloric acid (conc.), mobile phase IX: IX = 50%MeOH/45%H2O/5%HCl; for RF, Dioxane/Water/Hydrochloric acid (conc.), mobile phase V: V = 50%Dioxane/45%H2O/5%HCl; for RF, Acetone/Water/Hydrochloric acid (conc.), mobile phase V: V = 60%AC/35%H2O/5%HCl; for RF, Methanol/Water/Hydrochloric acid (conc.), mobile phase V: V = 70%MeOH/25%H2O/5%HCl; for RF, Dioxane/Water/Hydrochloric acid (conc.), mobile phase VI: VI = 40%Dioxane/55%H2O/5%HCl; for RF, Acetone/Water/Hydrochloric acid (conc.), mobile phase VI: VI = 55%AC/40%H2O/5%HCl; for RF, Methanol/Water/Hydrochloric acid (conc.), mobile phase VI: VI = 65%MeOH/30%H2O/5%HCl; for RF, Acetone/Water/Hydrochloric acid (conc.), mobile phase VII: VII = 50%AC/45%H2O/5%HCl; for RF, Methanol/Water/Hydrochloric acid (conc.), mobile phase VII: VII = 60%MeOH/35%H2O/5%HCl; for RF, Acetone/Water/Hydrochloric acid (conc.), mobile phase VIII: VIII = 45%AC/50%H2O/5%HCl; for RF, Methanol/Water/Hydrochloric acid (conc.), mobile phase VIII: VIII = 55%MeOH/40%H2O/5%HCl
How it was run: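 Lipophilicity from RP-TLC retention at 22±2 °C over a 4.5 cm development distance. Eluents: organic modifier (methanol, acetone or dioxane), water and hydrochloric acid, methanol stepped by 10%. RM0 obtained from RF.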

[3] = biological target: T1, purified human BChE (Homo sapiens, UniProt P06276); test: biochemical; format: biochemical
T1 construct: possibly also a gift of Dr Florian Nachon (the sentence is ambiguous)
T1 sequence (P06276 29-602): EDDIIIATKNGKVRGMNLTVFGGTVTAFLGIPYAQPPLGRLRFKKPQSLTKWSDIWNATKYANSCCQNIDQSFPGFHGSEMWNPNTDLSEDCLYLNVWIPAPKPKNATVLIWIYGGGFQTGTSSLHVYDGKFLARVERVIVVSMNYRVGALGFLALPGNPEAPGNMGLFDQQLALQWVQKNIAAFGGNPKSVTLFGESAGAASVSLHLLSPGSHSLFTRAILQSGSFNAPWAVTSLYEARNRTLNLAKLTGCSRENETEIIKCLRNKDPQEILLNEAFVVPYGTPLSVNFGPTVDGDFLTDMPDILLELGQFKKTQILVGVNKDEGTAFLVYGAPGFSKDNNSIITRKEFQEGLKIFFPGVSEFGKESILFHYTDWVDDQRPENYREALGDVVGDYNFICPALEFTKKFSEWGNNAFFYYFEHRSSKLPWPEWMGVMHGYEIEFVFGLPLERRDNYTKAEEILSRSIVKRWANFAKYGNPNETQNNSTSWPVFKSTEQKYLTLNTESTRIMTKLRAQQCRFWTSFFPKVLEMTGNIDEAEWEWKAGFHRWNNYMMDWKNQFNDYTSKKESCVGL
How it was run: (§1)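 Modified Ellman assay with acetylthiocholine and DTNB in 0.1 M sodium phosphate pH 7.4 (enzymes diluted with 0.1% BSA), ≤0.2% DMSO, 25 °C. At least three inhibitor concentrations per substrate level; Ki,app from Hunter–Downs equation, Ki from y-intercept and inhibition type from Ki,app vs [S].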

[4] = biological target: T2, recombinant human AChE (Homo sapiens, UniProt P22303); test: biochemical; format: biochemical; conditions: for IS: IS = Ki(BChE)/Ki(AChE), IS > 1 selective to AChE
T2 construct: gift of Dr Florian Nachon (Armed Forces Biomedical Research Institute, Brétigny-sur-Orge, France)
T2 sequence (P22303 32-614): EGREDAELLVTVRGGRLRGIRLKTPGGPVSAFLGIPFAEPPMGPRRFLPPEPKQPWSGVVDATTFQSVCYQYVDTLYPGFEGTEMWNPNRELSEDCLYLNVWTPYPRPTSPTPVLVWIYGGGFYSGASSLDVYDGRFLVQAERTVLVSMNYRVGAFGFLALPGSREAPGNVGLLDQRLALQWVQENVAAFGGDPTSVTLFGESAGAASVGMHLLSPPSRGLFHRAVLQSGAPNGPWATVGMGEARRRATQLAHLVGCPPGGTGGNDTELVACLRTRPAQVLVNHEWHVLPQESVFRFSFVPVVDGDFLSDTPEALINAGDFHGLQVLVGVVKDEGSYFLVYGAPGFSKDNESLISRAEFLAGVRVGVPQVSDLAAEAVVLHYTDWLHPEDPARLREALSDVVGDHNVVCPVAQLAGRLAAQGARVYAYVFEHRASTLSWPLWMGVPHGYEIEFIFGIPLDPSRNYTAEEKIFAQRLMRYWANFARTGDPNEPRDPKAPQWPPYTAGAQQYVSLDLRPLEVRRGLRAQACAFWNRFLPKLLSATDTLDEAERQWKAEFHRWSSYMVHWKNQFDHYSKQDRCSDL
How it was run: as §1

[5] = Acetone/Water/Hydrochloric acid (conc.)
[6] = Dioxane/Water/Hydrochloric acid (conc.)
[7] = Methanol/Water/Hydrochloric acid (conc.)
[8] = logarithm of Ki in µM, BChE, dependent variable of the QSAR model, read-out: Y Measured 2 log(ki)Bche, log (Ki/µM BChE) (converted)
[9] = ± standard error, 25 °C, ATCh substrate, read-out: Ki BChE
[10] = log (Ki/µM AChE), read-out: Y Measured 1 log(ki)Ache (converted)
[11] = ± standard error, 25 °C, ATCh substrate, read-out: Ki AChE

Compound	FRAP ([1]; 10 µM compound) [µM]	FRAP ([1]; 100 µM compound) [µM]	RM0 [2, 5]	b [2, 5]	RM0 [2, 6]	b [2, 6]	RM0 [2, 7]	b [2, 7]	RF, Methanol/Water/Hydrochloric acid (conc.), mobile phase I [2]	RF, Dioxane/Water/Hydrochloric acid (conc.), mobile phase II [2]	RF, Methanol/Water/Hydrochloric acid (conc.), mobile phase II [2]	RF, Acetone/Water/Hydrochloric acid (conc.), mobile phase III [2]	RF, Dioxane/Water/Hydrochloric acid (conc.), mobile phase III [2]	RF, Methanol/Water/Hydrochloric acid (conc.), mobile phase III [2]	RF, Dioxane/Water/Hydrochloric acid (conc.), mobile phase IV [2]	RF, Acetone/Water/Hydrochloric acid (conc.), mobile phase IV [2]	RF, Methanol/Water/Hydrochloric acid (conc.), mobile phase IV [2]	RF, Acetone/Water/Hydrochloric acid (conc.), mobile phase IX [2]	RF, Methanol/Water/Hydrochloric acid (conc.), mobile phase IX [2]	RF, Dioxane/Water/Hydrochloric acid (conc.), mobile phase V [2]	also measured
Clc1ccc2c(Nc3ccc(NCC45CC6CC(CC(C6)C4)C5)cc3)ccnc2c1 [Compound 17]	53 ± 4	512 ± 117	2.018	3.21	0.9452	1.898	2.643	3.504	0.73	0.75	0.69	0.59	0.71	0.54	0.71	0.54	0.53	0.11	0.09	0.49	antioxidant power lower than that of Trolox [1]: ~10 times; RF, Acetone/Water/Hydrochloric acid (conc.), mobile phase V [2]: 0.44; RF, Methanol/Water/Hydrochloric acid (conc.), mobile phase V [2]: 0.45; RF, Dioxane/Water/Hydrochloric acid (conc.), mobile phase VI [2]: 0.35; RF, Acetone/Water/Hydrochloric acid (conc.), mobile phase VI [2]: 0.39; RF, Methanol/Water/Hydrochloric acid (conc.), mobile phase VI [2]: 0.35; RF, Acetone/Water/Hydrochloric acid (conc.), mobile phase VII [2]: 0.33; RF, Methanol/Water/Hydrochloric acid (conc.), mobile phase VII [2]: 0.24; RF, Acetone/Water/Hydrochloric acid (conc.), mobile phase VIII [2]: 0.25; RF, Methanol/Water/Hydrochloric acid (conc.), mobile phase VIII [2]: 0.15; decrease in BChE inhibition vs compound 5 [3]: up to 275 times; Ki [3, 8]: 2.5 µM; Ki [3, 9]: 2.5 ± 0.5 µM; IS [4]: 0.8; Ki [4, 10]: 3.3 µM; Ki [4, 11]: 3.3 ± 0.4 µM
Clc1ccc2c(Nc3cccc(NCC45CC6CC(CC(C6)C4)C5)c3)ccnc2c1 [Compound 18]	22 ± 6	300 ± 32	2.074	3.191	1.102	2.114	2.664	3.468	0.71	0.75	0.68	0.55	0.71	0.5	0.7	0.5	0.49	0.1	0.09	0.48	antioxidant power lower than that of Trolox [1]: ~20 times; RF, Acetone/Water/Hydrochloric acid (conc.), mobile phase V [2]: 0.4; RF, Methanol/Water/Hydrochloric acid (conc.), mobile phase V [2]: 0.41; RF, Dioxane/Water/Hydrochloric acid (conc.), mobile phase VI [2]: 0.3; RF, Acetone/Water/Hydrochloric acid (conc.), mobile phase VI [2]: 0.36; RF, Methanol/Water/Hydrochloric acid (conc.), mobile phase VI [2]: 0.34; RF, Acetone/Water/Hydrochloric acid (conc.), mobile phase VII [2]: 0.3; RF, Methanol/Water/Hydrochloric acid (conc.), mobile phase VII [2]: 0.22; RF, Acetone/Water/Hydrochloric acid (conc.), mobile phase VIII [2]: 0.21; RF, Methanol/Water/Hydrochloric acid (conc.), mobile phase VIII [2]: 0.13; decrease in BChE inhibition vs compound 5 [3]: up to 275 times; Ki [3, 8]: 5.5 µM; Ki [3, 9]: 5.5 ± 0.6 µM; IS [4]: 0.6; Ki [4, 10]: 8.99 µM; Ki [4, 11]: 9 ± 0.8 µM
Clc1ccc2c(N3CCN(CC45CC6CC(CC(C6)C4)C5)CC3)ccnc2c1 [Compound 20]	2.9 ± 1.1	6.3 ± 1.6	1.432	2.592	0.3825	1.224	1.5449	2.158	0.67	0.75	0.7	0.69	0.76	0.58	0.78	0.65	0.56	0.28	0.22	0.63	RF, Acetone/Water/Hydrochloric acid (conc.), mobile phase V [2]: 0.58; RF, Methanol/Water/Hydrochloric acid (conc.), mobile phase V [2]: 0.48; RF, Dioxane/Water/Hydrochloric acid (conc.), mobile phase VI [2]: 0.5; RF, Acetone/Water/Hydrochloric acid (conc.), mobile phase VI [2]: 0.51; RF, Methanol/Water/Hydrochloric acid (conc.), mobile phase VI [2]: 0.45; RF, Acetone/Water/Hydrochloric acid (conc.), mobile phase VII [2]: 0.42; RF, Methanol/Water/Hydrochloric acid (conc.), mobile phase VII [2]: 0.38; RF, Acetone/Water/Hydrochloric acid (conc.), mobile phase VIII [2]: 0.35; RF, Methanol/Water/Hydrochloric acid (conc.), mobile phase VIII [2]: 0.31; decrease in BChE inhibition vs compound 5 [3]: up to 275 times; Ki [3, 8]: 25.1 µM; Ki [3, 9]: 25 ± 1 µM; IS [4]: 2.7; Ki [4, 10]: 9.4 µM; Ki [4, 11]: 9.4 ± 0.4 µM
Clc1ccc2c(N3CCN(CCC45CC6CC(CC(C6)C4)C5)CC3)ccnc2c1 [Compound 21]	6.0 ± 2.0	15 ± 5	1.611	2.562	0.7539	1.607	2.219	2.906	0.68	0.73	0.65	0.59	0.71	0.51	0.71	0.53	0.51	0.17	0.12	0.52	RF, Acetone/Water/Hydrochloric acid (conc.), mobile phase V [2]: 0.44; RF, Methanol/Water/Hydrochloric acid (conc.), mobile phase V [2]: 0.45; RF, Dioxane/Water/Hydrochloric acid (conc.), mobile phase VI [2]: 0.39; RF, Acetone/Water/Hydrochloric acid (conc.), mobile phase VI [2]: 0.4; RF, Methanol/Water/Hydrochloric acid (conc.), mobile phase VI [2]: 0.36; RF, Acetone/Water/Hydrochloric acid (conc.), mobile phase VII [2]: 0.35; RF, Methanol/Water/Hydrochloric acid (conc.), mobile phase VII [2]: 0.27; RF, Acetone/Water/Hydrochloric acid (conc.), mobile phase VIII [2]: 0.29; RF, Methanol/Water/Hydrochloric acid (conc.), mobile phase VIII [2]: 0.18; Ki [3, 8]: 5.6 µM; Ki [3, 9]: 5.6 ± 0.6 µM; IS [4]: 2.7; Ki [4, 10]: 2.1 µM; Ki [4, 11]: 2.1 ± 0.4 µM
